*1 amine or outer side, *2 acyl side, *3 side chain or, on linkers, in order; H or OH if unused. Where a SMILES comes first, the peptide text is derived from it. Side-chain parts run from the residue outwards. [ ]: non-standard residue; d: D form. The star is where a group is joined. C20 diacid = O=C(O)CCCCCCCCCCCCCCCCCCC(=O)*; C18 diacid = O=C(O)CCCCCCCCCCCCCCCCC(=O)*; αMePhe(2-F) = C[C@](N)(Cc1ccccc1F)C(=O)O; γGlu = O=C(O)[C@H](CCC(=O)[*:2])N[*:1]; αMeF = C[C@](N)(Cc1ccccc1)C(=O)O; 4Pal = N[C@@H](Cc1ccncc1)C(=O)O; αMeL = CC(C)C[C@](C)(N)C(=O)O; AEEA = NCCOCCOCC(=O)O; Aib = CC(C)(N)C(=O)O
Experiments:
[1] = target: T1, human GLP-1R (Homo sapiens, UniProt P43220); test: [125I]-GLP-1 binding, SPA with WGA beads, 0.1% bacitracin; conditions: geometric mean, read-out: hGLP1R Ki
T1 construct: expressed in transfected cells; crude membranes
How it was run: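 Binding buffer was 25 mM HEPES pH 7.4 with 2.5 mM CaCl2, 1 mM MgCl2, 0.1% (w/v) bacitracin, 0.003% Tween-20 and EDTA-free protease inhibitors. Four-parameter regression gave IC50, converted to Ki (geometric mean, SEM, n independent days).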

[2] = target: T2, human GIPR (Homo sapiens, UniProt P48546); test: [125I]-GIP binding, SPA with WGA beads, 0.1% bacitracin; conditions: geometric mean, read-out: hGIPR Ki
T2 construct: expressed in transfected cells; crude membranes
T2 sequence (P48546 22-466): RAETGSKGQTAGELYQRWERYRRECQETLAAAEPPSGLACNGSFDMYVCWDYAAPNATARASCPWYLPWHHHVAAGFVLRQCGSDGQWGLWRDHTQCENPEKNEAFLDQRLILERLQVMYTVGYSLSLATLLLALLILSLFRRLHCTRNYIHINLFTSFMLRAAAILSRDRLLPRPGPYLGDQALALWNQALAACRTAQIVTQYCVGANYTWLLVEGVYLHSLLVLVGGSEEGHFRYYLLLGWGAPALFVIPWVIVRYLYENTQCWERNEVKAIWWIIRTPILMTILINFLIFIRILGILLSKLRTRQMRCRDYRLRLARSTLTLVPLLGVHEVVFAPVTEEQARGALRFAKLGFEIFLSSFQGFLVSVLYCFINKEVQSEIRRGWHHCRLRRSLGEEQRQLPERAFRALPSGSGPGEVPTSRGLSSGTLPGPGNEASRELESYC
How it was run: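 Ki values are geometric means (SEM, n independent days), derived from four-parameter nonlinear regression of IC50. Membranes came from hGIPR-expressing CHO cells.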

[3] = target: T3, human GcgR (Homo sapiens, UniProt P47871); test: [125I]-Glucagon binding, SPA with WGA beads, 0.1% bacitracin; conditions: geometric mean, read-out: hGcgR Ki
T3 construct: expressed in transfected cells; crude membranes
How it was run: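 SPA competition binding with WGA beads on crude membranes from HEK293 cells stably expressing hGcgR. Buffer: 25 mM HEPES pH 7.4, 2.5 mM CaCl2, 1 mM MgCl2, 0.1% bacitracin, 0.003% Tween-20; 10-point 3-fold dilutions, NSB with 1 μM Gcg.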

T1 sequence (P43220 24-463): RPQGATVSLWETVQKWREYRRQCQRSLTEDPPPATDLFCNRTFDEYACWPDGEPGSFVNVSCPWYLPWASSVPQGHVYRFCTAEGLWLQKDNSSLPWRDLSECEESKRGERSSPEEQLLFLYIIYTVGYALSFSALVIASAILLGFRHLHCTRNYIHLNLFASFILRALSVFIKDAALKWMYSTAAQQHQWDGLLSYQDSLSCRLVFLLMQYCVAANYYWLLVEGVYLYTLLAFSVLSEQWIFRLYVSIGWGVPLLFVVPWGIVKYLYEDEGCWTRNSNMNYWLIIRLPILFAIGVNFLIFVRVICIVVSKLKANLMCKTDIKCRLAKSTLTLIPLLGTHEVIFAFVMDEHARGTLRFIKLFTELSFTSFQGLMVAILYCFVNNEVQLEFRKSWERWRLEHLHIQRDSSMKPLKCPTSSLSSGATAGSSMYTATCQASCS
T3 sequence (P47871 26-477): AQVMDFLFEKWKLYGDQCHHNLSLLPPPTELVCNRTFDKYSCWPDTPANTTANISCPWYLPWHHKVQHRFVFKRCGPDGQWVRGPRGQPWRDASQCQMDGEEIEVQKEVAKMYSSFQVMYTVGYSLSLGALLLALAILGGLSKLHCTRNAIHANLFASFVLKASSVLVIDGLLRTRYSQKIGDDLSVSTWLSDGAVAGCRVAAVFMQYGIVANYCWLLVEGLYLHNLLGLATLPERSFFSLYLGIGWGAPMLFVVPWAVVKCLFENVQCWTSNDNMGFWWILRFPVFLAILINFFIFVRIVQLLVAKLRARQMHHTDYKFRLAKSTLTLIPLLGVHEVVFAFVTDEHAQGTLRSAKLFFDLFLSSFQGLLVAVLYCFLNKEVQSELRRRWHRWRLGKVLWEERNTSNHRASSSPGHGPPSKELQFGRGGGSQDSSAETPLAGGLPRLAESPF

Structure (SMILES) | Ki [1] | Ki [2] | Ki [3]
CC[C@H](C)[C@H](NC(=O)[C@H](CO)NC(=O)[C@H](Cc1ccc(O)cc1)NC(=O)[C@H](CC(=O)O)NC(=O)[C@H](CO)NC(=O)[C@@H](NC(=O)[C@](C)(Cc1ccccc1F)NC(=O)[C@@H](NC(=O)CNC(=O)[C@H](CCC(=O)O)NC(=O)C(C)(C)NC(=O)[C@@H](N)Cc1ccc(O)cc1)[C@@H](C)O)[C@@H](C)CC)C(=O)N[C@@H](C)C(=O)N[C@@H](CC(C)C)C(=O)N[C@@H](CC(=O)O)C(=O)N[C@@H](CCCCN)C(=O)N[C@@H](CCCCNC(=O)COCCOCCNC(=O)COCCOCCNC(=O)CC[C@H](NC(=O)CCCCCCCCCCCCCCCCCCC(=O)O)C(=O)O)C(=O)N[C@@H](Cc1c[nH]cn1)C(=O)N[C@@H](CCC(N)=O)C(=O)NC(C)(C)C(=O)N[C@@H](CCC(=O)O)C(=O)N[C@@H](Cc1ccccc1)C(=O)N[C@H](C(=O)N[C@@H](CC(N)=O)C(=O)N[C@@H](Cc1c[nH]c2ccccc12)C(=O)N[C@@H](CC(C)C)C(=O)N[C@@H](CC(C)C)C(=O)N[C@@H](C)C(=O)NCC(=O)NCC(=O)N1CCC[C@H]1C(=O)N[C@@H](CO)C(=O)N[C@@H](CO)C(=O)NCC(=O)N[C@@H](C)C(=O)N1CCC[C@H]1C(=O)N1CCC[C@H]1C(=O)N1CCC[C@H]1C(=O)N[C@@H](CO)C(N)=O)C(C)C [Example 26] (H-Y[Aib]EGT[αMePhe(2-F)]ISDYSIALDKK([AEEA-AEEA-γGlu-C20 diacid])HQ[Aib]EFVNWLLAGGPSSGAPPPS-NH2) | 16.5 nM | 0.045 nM | 74.1 nM
CC[C@H](C)[C@H](NC(=O)[C@H](CO)NC(=O)[C@H](Cc1ccc(O)cc1)NC(=O)[C@H](CC(=O)O)NC(=O)[C@H](CO)NC(=O)[C@@H](NC(=O)[C@H](Cc1ccccc1)NC(=O)[C@@H](NC(=O)CNC(=O)[C@H](CCC(=O)O)NC(=O)C(C)(C)NC(=O)[C@@H](N)Cc1ccc(O)cc1)[C@@H](C)O)[C@@H](C)CC)C(=O)N[C@@H](C)C(=O)N[C@@H](CC(C)C)C(=O)N[C@@H](CC(=O)O)C(=O)N[C@@H](CCCCN)C(=O)N[C@@H](CCCCNC(=O)COCCOCCNC(=O)COCCOCCNC(=O)CC[C@H](NC(=O)CCCCCCCCCCCCCCCCC(=O)O)C(=O)O)C(=O)N[C@@H](Cc1c[nH]cn1)C(=O)N[C@@H](CCC(N)=O)C(=O)NC(C)(C)C(=O)N[C@@H](CC(=O)O)C(=O)N[C@@H](Cc1ccccc1)C(=O)N[C@H](C(=O)N[C@@H](CCC(=O)O)C(=O)N[C@@H](Cc1ccncc1)C(=O)N[C@@H](CC(C)C)C(=O)N[C@@H](CC(C)C)C(=O)N[C@@H](C)C(=O)NCC(=O)NCC(=O)N1CCC[C@H]1C(=O)N[C@@H](CO)C(=O)N[C@@H](CO)C(=O)NCC(=O)N[C@@H](C)C(=O)N1CCC[C@H]1C(=O)N1CCC[C@H]1C(=O)N1CCC[C@H]1C(=O)N[C@@H](CO)C(N)=O)C(C)C [Example 21] (H-Y[Aib]EGTFISDYSIALDKK([AEEA-AEEA-γGlu-C18 diacid])HQ[Aib]DFVE[4Pal]LLAGGPSSGAPPPS-NH2) | 801 nM | 1.46 nM | > 1530 nM
CC[C@H](C)[C@H](NC(=O)[C@H](CCCCN)NC(=O)[C@H](CC(=O)O)NC(=O)[C@H](CC(C)C)NC(=O)[C@](C)(CC(C)C)NC(=O)[C@@H](NC(=O)[C@H](CO)NC(=O)[C@H](Cc1ccc(O)cc1)NC(=O)[C@H](CC(=O)O)NC(=O)[C@H](CO)NC(=O)[C@@H](NC(=O)[C@H](Cc1ccccc1)NC(=O)[C@@H](NC(=O)CNC(=O)[C@H](CCC(=O)O)NC(=O)C(C)(C)NC(=O)[C@@H](N)Cc1ccc(O)cc1)[C@@H](C)O)[C@@H](C)CC)[C@@H](C)CC)C(=O)N[C@@H](Cc1c[nH]cn1)C(=O)N[C@@H](CCC(N)=O)C(=O)NC(C)(C)C(=O)N[C@@H](CCC(=O)O)C(=O)N[C@@H](Cc1ccccc1)C(=O)N[C@H](C(=O)N[C@@H](CCC(=O)O)C(=O)N[C@@H](Cc1ccncc1)C(=O)N[C@@H](CCCCNC(=O)COCCOCCNC(=O)COCCOCCNC(=O)CC[C@H](NC(=O)CCCCCCCCCCCCCCCCCCC(=O)O)C(=O)O)C(=O)N[C@@H](CC(C)C)C(=O)N[C@@H](CCC(=O)O)C(=O)NCC(=O)NCC(=O)N1CCC[C@H]1C(=O)N[C@@H](CO)C(=O)N[C@@H](CO)C(=O)NCC(=O)N[C@@H](C)C(=O)N1CCC[C@H]1C(=O)N1CCC[C@H]1C(=O)N1CCC[C@H]1C(=O)N[C@@H](CO)C(N)=O)C(C)C [Example 100] (H-Y[Aib]EGTFISDYSI[αMeL]LDKIHQ[Aib]EFVE[4Pal]K([AEEA-AEEA-γGlu-C20 diacid])LEGGPSSGAPPPS-NH2) | > 913 nM | 0.0674 nM | 572 nM
CC[C@H](C)[C@H](NC(=O)[C@H](Cc1ccccc1)NC(=O)[C@@H](NC(=O)CNC(=O)[C@H](CCC(=O)O)NC(=O)C(C)(C)NC(=O)[C@@H](N)Cc1ccc(O)cc1)[C@@H](C)O)C(=O)N[C@@H](CO)C(=O)N[C@@H](CC(=O)O)C(=O)N[C@@H](Cc1ccc(O)cc1)C(=O)N[C@@H](CO)C(=O)N[C@H](C(=O)N[C@@](C)(CC(C)C)C(=O)N[C@@H](CC(C)C)C(=O)N[C@@H](CC(=O)O)C(=O)N[C@@H](CCC(=O)O)C(=O)N[C@@H](CCCCNC(=O)COCCOCCNC(=O)COCCOCCNC(=O)CC[C@H](NC(=O)CCCCCCCCCCCCCCCCCCC(=O)O)C(=O)O)C(=O)N[C@@H](Cc1c[nH]cn1)C(=O)N[C@@H](CCC(N)=O)C(=O)NC(C)(C)C(=O)N[C@@H](CC(=O)O)C(=O)N[C@@H](Cc1ccccc1)C(=O)N[C@H](C(=O)N[C@@H](CCC(=O)O)C(=O)N[C@@H](Cc1ccncc1)C(=O)N[C@@H](CC(C)C)C(=O)N[C@@H](CC(C)C)C(=O)N[C@@H](C)C(=O)NCC(=O)NCC(=O)N1CCC[C@H]1C(=O)N[C@@H](CO)C(=O)N[C@@H](CO)C(=O)NCC(=O)N[C@@H](C)C(=O)N1CCC[C@H]1C(=O)N1CCC[C@H]1C(=O)N1CCC[C@H]1C(=O)N[C@@H](CO)C(N)=O)C(C)C)[C@@H](C)CC [Example 86] | 108 nM | 0.0533 nM | 462 nM
CC[C@H](C)[C@H](NC(=O)[C@H](CO)NC(=O)[C@H](Cc1ccc(O)cc1)NC(=O)[C@H](CC(=O)O)NC(=O)[C@H](CO)NC(=O)[C@@H](NC(=O)[C@](C)(Cc1ccccc1)NC(=O)[C@@H](NC(=O)CNC(=O)[C@H](CCC(=O)O)NC(=O)C(C)(C)NC(=O)[C@@H](N)Cc1ccc(O)cc1)[C@@H](C)O)[C@@H](C)CC)C(=O)N[C@@H](C)C(=O)N[C@@H](CC(C)C)C(=O)N[C@@H](CC(=O)O)C(=O)N[C@@H](CCCCN)C(=O)N[C@H](C(=O)N[C@@H](Cc1c[nH]cn1)C(=O)N[C@@H](CCC(N)=O)C(=O)NC(C)(C)C(=O)N[C@@H](CCC(=O)O)C(=O)N[C@@H](Cc1ccccc1)C(=O)N[C@H](C(=O)N[C@@H](CC(N)=O)C(=O)N[C@@H](Cc1ccc(O)cc1)C(=O)N[C@@H](CCCCNC(=O)COCCOCCNC(=O)COCCOCCNC(=O)CC[C@H](NC(=O)CCCCCCCCCCCCCCCCCCC(=O)O)C(=O)O)C(=O)N[C@@H](CC(C)C)C(=O)N[C@@H](C)C(=O)NCC(=O)NCC(=O)N1CCC[C@H]1C(=O)N[C@@H](CO)C(=O)N[C@@H](CO)C(=O)NCC(=O)N[C@@H](C)C(=O)N1CCC[C@H]1C(=O)N1CCC[C@H]1C(=O)N1CCC[C@H]1C(=O)N[C@@H](CO)C(N)=O)C(C)C)[C@@H](C)CC [Example 97] (H-Y[Aib]EGT[αMeF]ISDYSIALDKIHQ[Aib]EFVNYK([AEEA-AEEA-γGlu-C20 diacid])LAGGPSSGAPPPS-NH2) | 570 nM | 0.0249 nM | 77.5 nM
